Assay results taken from patent US20230091810A1, “FIRST-IN-CLASS OF SHMT2 AND MTHFD2 INHIBITORS AS ANTITUMOR AGENTS” (Duquesne University of the Holy Spirit, priority 2017, published 2023).

What was measured:
AICARFTase = AICARFTase (Homo sapiens, UniProt P31939); experiment: in vitro inhibition of purified AICARFTase (ATIC)
R2 (null) (CHO) = experiment: proliferation assay, R2 transporter-null CHO cells; format: cell-based, Chinese hamster; conditions: Cricetulus griseus, folate-/glycine-free RPMI1640 with 25 nM leucovorin, 96 h, drug 0-1000 nM, read-out: IC50s (SE) R2 (null) (CHO)
Description: Proliferation assays were performed with engineered Chinese hamster ovary (CHO) cell lines R2 (transporter-null), PC43-10 (expresses RFC only), RT16 (FRα only), and R2/PCFT4 (PCFT only) cultured in folate-/glycine-free RPMI1640 supplemented with 25 nM leucovorin. Additional results are shown for HCT116 (colon tumor cells (CTC)), IGROV1 (epithelial ovarian cancer (EOC) cells), H460 (non-small cell lung cancer (NSCLC) cells), MIAPaCa-2 (pancreatic cancer (PaC) cells), and HPAC (PaC).
Cell culture and proliferation/protection assays. […]
For proliferation assays with the CHO cell lines, the cells were treated with drugs (0-1 µM) in a 96-well plate (2000 cells/well) in glycine-free, nucleoside-free folate-free RPMI supplemented with 10% dialyzed fetal bovine serum, 1% penicillin/streptomycin, 2 mM L-glutamine, and 25 nM leucovorin (final volume 200 µL) over a 96 h incubation period at 37° C. with 5% CO2. […] To quantify viable cells, the media was removed and plates were washed once with 100 µL Dulbecco’s Phosphate-Buffered Saline (PBS), after which 100 µL PBS and 20 µL Cell Titer-blue (Promega) were added. Relative cell numbers were proportional to the fluorescence measured with a fluorescence plate reader (590 nm emission, 560 nm excitation). […]

R2/PCFT4 (CHO) = experiment: proliferation assay, R2/PCFT4 CHO cells expressing PCFT only; format: cell-based, Chinese hamster; conditions: Cricetulus griseus, folate-/glycine-free RPMI1640 with 25 nM leucovorin, 96 h, drug 0-1000 nM, read-out: IC50s (SE) R2/PCFT4 (CHO)

AICARFTase, sequence (P31939 whole entry): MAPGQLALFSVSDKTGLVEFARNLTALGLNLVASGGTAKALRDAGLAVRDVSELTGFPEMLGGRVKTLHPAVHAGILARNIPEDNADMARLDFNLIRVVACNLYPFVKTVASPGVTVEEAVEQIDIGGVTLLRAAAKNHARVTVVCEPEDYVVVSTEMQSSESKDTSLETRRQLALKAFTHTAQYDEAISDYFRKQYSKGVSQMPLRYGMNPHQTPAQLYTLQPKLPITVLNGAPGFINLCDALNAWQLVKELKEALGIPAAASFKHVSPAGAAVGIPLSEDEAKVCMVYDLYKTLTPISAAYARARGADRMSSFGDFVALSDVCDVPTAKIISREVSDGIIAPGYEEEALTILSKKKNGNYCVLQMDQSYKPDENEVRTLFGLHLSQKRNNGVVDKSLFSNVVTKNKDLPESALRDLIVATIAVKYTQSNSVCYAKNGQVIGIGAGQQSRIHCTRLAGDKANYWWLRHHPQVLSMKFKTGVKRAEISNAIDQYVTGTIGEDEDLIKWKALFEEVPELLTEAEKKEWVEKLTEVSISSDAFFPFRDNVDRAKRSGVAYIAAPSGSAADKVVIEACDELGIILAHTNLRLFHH

Ki (AICARFTase): 10900 ± 6070 nM
Structure (SMILES): Nc1nc2ccn(CCCc3ccc(C(=O)N[C@@H](CCC(=O)O)C(=O)O)cc3)c2c(=O)[nH]1 [AGF291]
IC50 (R2 (null) (CHO)): > 1000 nM
IC50 (R2/PCFT4 (CHO)): 282 nM
